# Several values for one entry are separate records, joined by “and”; a condition that tells them apart may be missing. Equal entries are not always repeated. Inconclusive results are not listed.
# Tested on: CD8F1 mice, subcutaneous mammary adenocarcinoma, T/C%
# Assay: NCI In Vivo Anticancer Drug Screen. Data for tumor model Mammary Adenocarcinoma CD8F1 (subcutaneous) in CD8F1
# Conditions: higher = larger tumour
# Description: The antitumor activity of compounds was measured in mice bearing transplantable tumors. Survival or tumor size were measured and the results are expressed as the measurement made in the treated group (T) divided by the measurement made in the vehicle treated control group (C). The tumor model used in this assay is Mammary Adenocarcinoma CD8F1 (subcutaneous) in CD8F1
# [1] = endpoint: median tumor weight (est.), dose: 10.0 mg/kg/injection, schedule: Q01DX005 (ip), vehicle: saline
# [2] = endpoint: median tumor weight (est.), dose: 20.0 mg/kg/injection, schedule: Q01DX005 (ip), vehicle: saline
# [3] = endpoint: median tumor weight (est.), dose: 25.0 mg/kg/injection, schedule: Q01DX005 (ip), vehicle: saline
# [4] = endpoint: median tumor weight (est.), dose: 37.5 mg/kg/injection, schedule: Q01DX005 (ip), vehicle: saline
# [5] = endpoint: median tumor weight (est.), dose: 37.5 mg/kg/injection, schedule: Q04DX005 (ip), vehicle: saline
# [6] = endpoint: median tumor weight (est.), dose: 50.0 mg/kg/injection, schedule: Q04DX005 (ip), vehicle: saline
# [7] = endpoint: median tumor weight (est.), dose: 50.0 mg/kg/injection, schedule: Q07DX005 (ip), vehicle: saline
# [8] = endpoint: median tumor weight change, dose: 25.0 mg/kg/injection, schedule: Q01DX001 (ip), vehicle: saline
# [9] = endpoint: median tumor weight change, dose: 50.0 mg/kg/injection, schedule: Q01DX001 (ip), vehicle: saline
# [10] = endpoint: median tumor weight change, dose: 100.0 mg/kg/injection, schedule: Q01DX001 (ip), vehicle: saline
structure (smiles),measurement,setting,value
O=c1[nH]cc(F)c(=O)[nH]1,T/C,"endpoint: mean tumor weight (est.), dose: 50.0 mg/kg/injection, schedule: Q07DX004 (ip), vehicle: saline",28 % of control
same,T/C,"endpoint: mean tumor weight (est.), dose: 50.0 mg/kg/injection, schedule: Q07DX004 (iv), vehicle: saline",25 % of control
same,T/C,"endpoint: mean tumor weight (est.), dose: 100.0 mg/kg/injection, schedule: Q07DX003 (ip), vehicle: saline",15 % of control
same,T/C,"endpoint: mean tumor weight (est.), dose: 100.0 mg/kg/injection, schedule: Q07DX004 (ip), vehicle: saline",2 % of control
same,T/C,"endpoint: mean tumor weight (est.), dose: 100.0 mg/kg/injection, schedule: Q07DX004 (iv), vehicle: saline",3 % of control
same,T/C,"endpoint: mean tumor weight (est.), dose: 115.0 mg/kg/injection, schedule: Q07DX003 (ip), vehicle: saline",14 % of control
same,T/C,"endpoint: mean tumor weight (est.), dose: 130.0 mg/kg/injection, schedule: Q07DX003 (ip), vehicle: saline",5 % of control
same,T/C,"endpoint: mean tumor weight, dose: 5.0 mg/kg/injection, schedule: Q01DX009 (ip), vehicle: saline",159 % of control
same,T/C,"endpoint: mean tumor weight, dose: 10.0 mg/kg/injection, schedule: Q01DX009 (ip), vehicle: saline",199 % of control
same,T/C,"endpoint: mean tumor weight, dose: 20.0 mg/kg/injection, schedule: Q01DX009 (ip), vehicle: saline",4 % of control
same,T/C,"endpoint: mean tumor weight, dose: 25.0 mg/kg/injection, schedule: Q07DX006 (ip), vehicle: saline",105 % of control
same,T/C,"endpoint: mean tumor weight, dose: 25.0 mg/kg/injection, schedule: Q07DX007 (ip), vehicle: saline",92 % of control
same,T/C,"endpoint: mean tumor weight, dose: 50.0 mg/kg/injection, schedule: Q07DX006 (ip), vehicle: saline",10 % of control
same,T/C,"endpoint: mean tumor weight, dose: 50.0 mg/kg/injection, schedule: Q07DX007 (ip), vehicle: saline",11 % of control
same,T/C,"endpoint: median tumor weight (est.), dose: 5.0 mg/kg/injection, schedule: Q01DX005 (ip), vehicle: saline",176 % of control
same,T/C,[1],20 % of control
same,T/C,"endpoint: median tumor weight (est.), dose: 15.0 mg/kg/injection, schedule: Q04DX005 (ip), vehicle: saline",17 % of control
same,T/C,"endpoint: median tumor weight (est.), dose: 15.0 mg/kg/injection, schedule: Q07DX005 (ip), vehicle: saline",4 % of control
same,T/C,[2],49 % of control
same,T/C,[3],39 % of control
same,T/C,"endpoint: median tumor weight (est.), dose: 25.0 mg/kg/injection, schedule: Q04DX005 (ip), vehicle: saline",30 % of control
same,T/C,"endpoint: median tumor weight (est.), dose: 25.0 mg/kg/injection, schedule: Q07DX005 (ip), vehicle: saline",19 % of control
same,T/C,"endpoint: median tumor weight (est.), dose: 27.0 mg/kg/injection, schedule: Q07DX005 (ip), vehicle: saline",86 % of control
same,T/C,"endpoint: median tumor weight (est.), dose: 30.0 mg/kg/injection, schedule: Q04DX005 (ip), vehicle: saline",24 % of control
same,T/C,"endpoint: median tumor weight (est.), dose: 30.0 mg/kg/injection, schedule: Q07DX005 (ip), vehicle: saline",5 % of control
same,T/C,[4],14 % of control
same,T/C,[5],24 % of control
same,T/C,"endpoint: median tumor weight (est.), dose: 37.5 mg/kg/injection, schedule: Q07DX005 (ip), vehicle: saline",27 % of control
same,T/C,"endpoint: median tumor weight (est.), dose: 40.0 mg/kg/injection, schedule: Q07DX005 (ip), vehicle: saline",48 % of control
same,T/C,[6],9 % of control
same,T/C,[7],2 % of control
same,T/C,"endpoint: median tumor weight (est.), dose: 60.0 mg/kg/injection, schedule: Q07DX005 (ip), vehicle: saline",18 % of control
same,T/C,"endpoint: median tumor weight (est.), dose: 89.0 mg/kg/injection, schedule: Q01DX001 (ip), vehicle: saline",30 % of control
same,T/C,"endpoint: median tumor weight (est.), dose: 90.0 mg/kg/injection, schedule: Q07DX005 (ip), vehicle: saline",9 % of control
same,T/C,"endpoint: median tumor weight (est.), dose: 133.0 mg/kg/injection, schedule: Q01DX001 (ip), vehicle: saline",22 % of control
same,T/C,"endpoint: median tumor weight (est.), dose: 200.0 mg/kg/injection, schedule: Q01DX001 (ip), vehicle: saline",21 % of control
same,T/C,"endpoint: median tumor weight (est.), dose: 270.0 mg/kg/injection, schedule: Q01DX001 (ip), vehicle: saline",17 % of control
same,T/C,[8],103 % of control
same,T/C,[9],61 % of control
same,T/C,[10],33 % of control
O=P1(N(CCCl)CCCl)NCCCO1 (stereo not given),T/C,"endpoint: mean tumor weight, dose: 20.0 mg/kg/injection, schedule: Q01DX018 (ip), vehicle: saline",8 % of control
same,T/C,"endpoint: mean tumor weight, dose: 37.5 mg/kg/injection, schedule: Q07DX004 (ip), vehicle: saline",3 % of control
same,T/C,"endpoint: mean tumor weight, dose: 40.0 mg/kg/injection, schedule: Q01DX009 (ip), vehicle: saline",4 % of control and 9 % of control
same,T/C,"endpoint: mean tumor weight, dose: 50.0 mg/kg/injection, schedule: Q07DX004 (ip), vehicle: saline",3 % of control
same,T/C,[1],55 % of control
same,T/C,[2],1 % of control
same,T/C,[3],80 % of control
same,T/C,[4],17 % of control
same,T/C,[5],60 % of control
same,T/C,"endpoint: median tumor weight (est.), dose: 40.0 mg/kg/injection, schedule: Q01DX005 (ip), vehicle: saline",8 % of control
same,T/C,"endpoint: median tumor weight (est.), dose: 50.0 mg/kg/injection, schedule: Q01DX005 (ip), vehicle: saline",15 % of control
same,T/C,[6],11 % of control
same,T/C,[7],27 % of control
same,T/C,"endpoint: median tumor weight (est.), dose: 67.0 mg/kg/injection, schedule: Q07DX005 (ip), vehicle: saline",6 % of control
same,T/C,"endpoint: median tumor weight (est.), dose: 75.0 mg/kg/injection, schedule: Q01DX005 (ip), vehicle: saline",1 % of control
same,T/C,"endpoint: median tumor weight (est.), dose: 75.0 mg/kg/injection, schedule: Q04DX005 (ip), vehicle: saline",1 % of control
same,T/C,"endpoint: median tumor weight (est.), dose: 75.0 mg/kg/injection, schedule: Q07DX005 (ip), vehicle: saline",5 % of control
same,T/C,"endpoint: median tumor weight (est.), dose: 80.0 mg/kg/injection, schedule: Q01DX005 (ip), vehicle: saline",2 % of control
same,T/C,"endpoint: median tumor weight (est.), dose: 100.0 mg/kg/injection, schedule: Q07DX005 (ip), vehicle: saline",1 % of control
same,T/C,"endpoint: median tumor weight (est.), dose: 111.0 mg/kg/injection, schedule: Q01DX001 (ip), vehicle: saline",32 % of control
same,T/C,"endpoint: median tumor weight (est.), dose: 167.0 mg/kg/injection, schedule: Q01DX001 (ip), vehicle: saline",34 % of control
same,T/C,"endpoint: median tumor weight (est.), dose: 250.0 mg/kg/injection, schedule: Q01DX001 (ip), vehicle: saline",9 % of control
same,T/C,[8],91 % of control
same,T/C,[9],42 % of control and 62 % of control
same,T/C,[10],5 % of control and 29 % of control
same,T/C,"endpoint: median tumor weight change, dose: 400.0 mg/kg/injection, schedule: Q01DX001 (ip), vehicle: saline",-56 % of control
CC[C@@]1(O)C[C@H](OC2CC(N(C)C)C(OC3CC(O)C(OC4CCC(=O)C(C)O4)C(C)O3)C(C)O2)c2c(cc3c(c2O)C(=O)c2c(O)ccc(O)c2C3=O)[C@H]1C(=O)OC (stereo not given in full),T/C,"endpoint: mean tumor weight, dose: 0.5 mg/kg/injection, schedule: Q07DX006 (ip), vehicle: water",43 % of control
same,T/C,"endpoint: mean tumor weight, dose: 1.0 mg/kg/injection, schedule: Q07DX006 (ip), vehicle: water",35 % of control
same,T/C,"endpoint: mean tumor weight, dose: 2.0 mg/kg/injection, schedule: Q07DX006 (ip), vehicle: water",5 % of control
same,T/C,"endpoint: mean tumor weight, dose: 4.0 mg/kg/injection, schedule: Q07DX006 (ip), vehicle: water",17 % of control
same,T/C,"endpoint: median tumor weight (est.), dose: 0.5 mg/kg/injection, schedule: Q07DX005 (ip), vehicle: water",69 % of control and 90 % of control
same,T/C,"endpoint: median tumor weight (est.), dose: 1.0 mg/kg/injection, schedule: Q07DX005 (ip), vehicle: water",83 % of control
same,T/C,"endpoint: median tumor weight (est.), dose: 2.0 mg/kg/injection, schedule: Q07DX005 (ip), vehicle: water",37 % of control and 53 % of control
same,T/C,"endpoint: median tumor weight (est.), dose: 4.0 mg/kg/injection, schedule: Q07DX005 (ip), vehicle: water",8 % of control and 26 % of control
same,T/C,"endpoint: median tumor weight (est.), dose: 8.0 mg/kg/injection, schedule: Q07DX005 (ip), vehicle: water",1 % of control
CC1=C(C)C(=O)O[C@@H]([C@](C)(O)[C@]2(O)CC[C@@]3(O)[C@@H]4C[C@H]5O[C@]56[C@@H](O)C=CC(=O)[C@]6(C)[C@H]4CC[C@]23C)C1,T/C,"endpoint: median tumor weight change, dose: 18.75 mg/kg/injection, schedule: Q01DX001 (ip), vehicle: saline",104 % of control
same,T/C,"endpoint: median tumor weight change, dose: 37.5 mg/kg/injection, schedule: Q01DX001 (ip), vehicle: saline",63 % of control
same,T/C,"endpoint: median tumor weight change, dose: 75.0 mg/kg/injection, schedule: Q01DX001 (ip), vehicle: saline",61 % of control
CCC/C=C/C=C/C(=O)OC1/C(=C/C(=O)OC)CC2CC(C(C)O)OC(=O)CC(O)CC3CC(OC(C)=O)C(C)(C)C(O)(CC4C/C(=C/C(=O)OC)CC(/C=C/C(C)(C)C1(O)O2)O4)O3 (stereo not given),T/C,"endpoint: median tumor weight change, dose: 0.02 mg/kg/injection, schedule: Q01DX001 (ip), vehicle: saline + alcohol",63 % of control
same,T/C,"endpoint: median tumor weight change, dose: 0.04 mg/kg/injection, schedule: Q01DX001 (ip), vehicle: saline + alcohol",115 % of control
same,T/C,"endpoint: median tumor weight change, dose: 0.09 mg/kg/injection, schedule: Q01DX001 (ip), vehicle: saline + alcohol",95 % of control
same,T/C,"endpoint: median tumor weight change, dose: 0.19 mg/kg/injection, schedule: Q01DX001 (ip), vehicle: saline + alcohol",22 % of control
CCCCn1cnc2c(=S)nc[nH]c21,T/C,"endpoint: median tumor weight change, dose: 250.0 mg/kg/injection, schedule: Q01DX001 (ip), vehicle: saline with Tween-80",60 % of control
same,T/C,"endpoint: median tumor weight change, dose: 500.0 mg/kg/injection, schedule: Q01DX001 (ip), vehicle: saline with Tween-80",2 % of control
same,T/C,"endpoint: median tumor weight change, dose: 1000.0 mg/kg/injection, schedule: Q01DX001 (ip), vehicle: saline with Tween-80",8 % of control

# From PubChem BioAssay AID220 (DTP/NCI, 2004)
